Data published in patent US11174245B2, “Benzimidazole compounds and derivatives as EGFR inhibitors” (Boehringer Ingelheim International GmbH, priority 2018, dated 2021).

Molecular target: EGFR (d746-750 T790M C797S) (Homo sapiens (Human), UniProt P00533, C797S/DEL746-750/T790M)
Assay: Biochemical EGFR inhibition assay (TR-FRET, poly-GT substrate), EGFR d746-750 T790M C797S
Settings: 100 μM ATP
Protocol: (§1) Biochemical EGFR Inhibition Assays
(§2) Initially, the inhibitory effect of compounds according to the invention is measured in biochemical assays which measure the phosphorylation activity of EGFR enzyme forms on poly-GT substrate in the presence of different concentrations of ATP (5 μM and 100 μM final assay concentration).
(§3) The following enzyme forms of EGFR are representative examples that can be used in these assays at the given concentrations:
(§4) For the chosen highest assay concentration of 100 μM, 150 nL of compound solution is transferred from a 10 mM DMSO compound stock solution. A series of eleven fivefold dilutions per compound is transferred to the assay plate, compound dilutions are tested in duplicates. DMSO is added as backfill to a total volume of 150 nL. The assay runs on a fully automated robotic system.
(§5) These biochemical EGFR enzyme form compound dose-response assays quantify the kinase activity via phosphorylation of a tagged poly-GT substrate. The results of the assay are provided as IC50 values.

Chain of EGFR (d746-750 T790M C797S) (P00533 other isoform, or with tags, fused parts or gaps T790M/C797S/del 1-694/del 746-750 limits assumed): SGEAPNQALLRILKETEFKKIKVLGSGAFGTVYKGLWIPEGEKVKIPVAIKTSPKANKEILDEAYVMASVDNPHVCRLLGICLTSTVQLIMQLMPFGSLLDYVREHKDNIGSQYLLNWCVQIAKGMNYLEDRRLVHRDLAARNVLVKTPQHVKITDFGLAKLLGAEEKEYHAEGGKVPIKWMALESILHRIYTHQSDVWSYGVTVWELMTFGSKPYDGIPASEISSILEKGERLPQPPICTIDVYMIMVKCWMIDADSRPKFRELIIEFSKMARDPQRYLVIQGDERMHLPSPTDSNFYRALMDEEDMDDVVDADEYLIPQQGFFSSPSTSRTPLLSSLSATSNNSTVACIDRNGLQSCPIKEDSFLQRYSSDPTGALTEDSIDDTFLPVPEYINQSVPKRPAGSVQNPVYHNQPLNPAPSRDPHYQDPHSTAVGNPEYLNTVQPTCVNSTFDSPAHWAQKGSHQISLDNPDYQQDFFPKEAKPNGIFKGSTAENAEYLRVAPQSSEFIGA

Compound | IC50
Cn1cc(-c2cc(C(=O)/N=c3\[nH]c4ccccc4n3CC(C)(C)O)ccn2)cn1 [I-001] | 71.7 nM
O=C(/N=c1\[nH]c2ccccc2n1C1CCCC1)c1ccnc(-c2cccnc2)c1 [I-002] | 4.6 nM
Cn1cc(-c2cc(C(=O)/N=c3\[nH]c4ccccc4n3C3CCCC3)ccn2)cn1 [I-003] | 9.9 nM
Cc1c(-c2cc(C(=O)/N=c3\[nH]c4ccccc4n3C3CCCC3)ccn2)cnn1C [I-004] | 4.7 nM
Cc1nn(C)cc1-c1cc(C(=O)/N=c2\[nH]c3ccccc3n2C2CCCC2)ccn1 [I-005] | 14.2 nM
CC(=O)N1CCC(c2ccc3c(c2)[nH]/c(=N\C(=O)c2ccnc(-c4cnn(C)c4)c2)n3C2CCCC2)CC1 [I-008] | 5 nM
Cn1cc(-c2cc(C(=O)/N=c3\[nH]c4ccccc4n3[C@H]3CC[C@@H](O)C3)ccn2)cn1 [I-009] | 49 nM
CN1CCC(c2ccc3c(c2)[nH]/c(=N\C(=O)c2ccnc(-c4cnn(C)c4)c2)n3C2CCCC2)CC1 [I-010] | 2.9 nM
CN1CCC(c2ccc3c(c2)[nH]/c(=N\C(=O)c2ccnc(-c4cccnc4)c2)n3C2CCCC2)CC1 [I-011] | 2.5 nM
CC(C)Cn1/c(=N/C(=O)c2ccnc(-c3cnn(C)c3)c2)[nH]c2ccccc21 [I-012] | 10.5 nM

Now from value to compound:

IC50 | Compound
18.4 nM | Cn1cc(-c2cc(C(=O)/N=c3\[nH]c4ccccc4n3[C@H]3CC[C@H](O)C3)ccn2)cn1 [I-013]
48.8 nM | CCCn1/c(=N/C(=O)c2ccnc(-c3cnn(C)c3)c2)[nH]c2ccccc21 [I-014]
14.2 nM | Cc1c(-c2cc(C(=O)/N=c3\[nH]c4ccccc4n3CC(C)(C)O)ccn2)cnn1C [I-017]
26.3 nM | Cn1cc(-c2cc(C(=O)/N=c3\[nH]c4ccccc4n3C3CCC3)ccn2)cn1 [I-019]
4.9 nM | CN1CCC(c2ccc3c(c2)[nH]/c(=N\C(=O)c2ccnc(-c4cnn(C)c4)c2)n3CC(C)(C)O)CC1 [I-021]
61.8 nM | CN1CCN(c2ccc3c(c2)[nH]/c(=N\C(=O)c2ccnc(-c4cnn(C)c4)c2)n3CC(C)(C)O)CC1 [I-022]
1.2 nM | COc1ccncc1-c1cc(C(=O)/N=c2\[nH]c3cc(C4CCN(C(C)=O)CC4)ccc3n2CC(C)(C)O)ccn1 [I-031]

Molecular target: EGFR (mutated) 695-1022, T790M, C797S, L858R (Homo sapiens (Human), UniProt P00533, C797S/L858R/T790M)
Assay: Biochemical EGFR inhibition assay (TR-FRET, poly-GT substrate), EGFR T790M C797S L858R
Settings: read-out: LR_TM_CS (5 μM ATP) IC50; 5 μM ATP
Protocol: as §1, §2, §3, §4, §5

Chain of EGFR (mutated) 695-1022, T790M, C797S, L858R (P00533 695-1022 T790M/C797S/L858R): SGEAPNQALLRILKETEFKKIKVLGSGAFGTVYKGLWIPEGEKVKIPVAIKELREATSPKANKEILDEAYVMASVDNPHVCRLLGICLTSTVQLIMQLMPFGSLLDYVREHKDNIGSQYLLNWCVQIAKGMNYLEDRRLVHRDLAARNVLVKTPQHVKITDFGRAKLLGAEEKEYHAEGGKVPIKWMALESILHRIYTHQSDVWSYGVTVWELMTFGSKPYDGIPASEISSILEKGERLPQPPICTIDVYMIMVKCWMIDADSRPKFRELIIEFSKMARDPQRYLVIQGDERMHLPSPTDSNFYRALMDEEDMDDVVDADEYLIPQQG

Compound | IC50
CC(=O)N1CCC(c2ccc3c(c2)[nH]/c(=N\C(=O)c2ccnc(-c4cnn(C)c4)c2)n3C2CCCC2)CC1 [I-008] | 1.5 nM
CC(C)Cn1/c(=N/C(=O)c2ccnc(-c3cnn(C)c3)c2)[nH]c2ccccc21 [I-012] | 1.9 nM
Cc1c(-c2cc(C(=O)/N=c3\[nH]c4ccccc4n3CC(C)(C)O)ccn2)cnn1C [I-017] | 3.9 nM

Same assay, conditions: read-out: LR_TM_CS (100 μM ATP) IC50; 100 μM ATP

Compound | IC50
O=C(/N=c1\[nH]c2ccccc2n1C1CCCC1)c1ccnc(-c2cccnc2)c1 [I-002] | 67.4 nM
Cn1cc(-c2cc(C(=O)/N=c3\[nH]c4ccccc4n3C3CCCC3)ccn2)cn1 [I-003] | 61.7 nM
Cc1c(-c2cc(C(=O)/N=c3\[nH]c4ccccc4n3C3CCCC3)ccn2)cnn1C [I-004] | 38.5 nM
Cc1nn(C)cc1-c1cc(C(=O)/N=c2\[nH]c3ccccc3n2C2CCCC2)ccn1 [I-005] | 105 nM
CC(=O)N1CCC(c2ccc3c(c2)[nH]/c(=N\C(=O)c2ccnc(-c4cnn(C)c4)c2)n3C2CCCC2)CC1 [I-008] | 39.6 nM
Cn1cc(-c2cc(C(=O)/N=c3\[nH]c4ccccc4n3[C@H]3CC[C@@H](O)C3)ccn2)cn1 [I-009] | 184 nM
CN1CCC(c2ccc3c(c2)[nH]/c(=N\C(=O)c2ccnc(-c4cnn(C)c4)c2)n3C2CCCC2)CC1 [I-010] | 17.4 nM
CN1CCC(c2ccc3c(c2)[nH]/c(=N\C(=O)c2ccnc(-c4cccnc4)c2)n3C2CCCC2)CC1 [I-011] | 27.7 nM
CC(C)Cn1/c(=N/C(=O)c2ccnc(-c3cnn(C)c3)c2)[nH]c2ccccc21 [I-012] | 64.6 nM

Now from value to compound:

IC50 | Compound
76.5 nM | Cn1cc(-c2cc(C(=O)/N=c3\[nH]c4ccccc4n3[C@H]3CC[C@H](O)C3)ccn2)cn1 [I-013]
146 nM | CCCn1/c(=N/C(=O)c2ccnc(-c3cnn(C)c3)c2)[nH]c2ccccc21 [I-014]
111 nM | Cc1c(-c2cc(C(=O)/N=c3\[nH]c4ccccc4n3CC(C)(C)O)ccn2)cnn1C [I-017]
102 nM | Cn1cc(-c2cc(C(=O)/N=c3\[nH]c4ccccc4n3C3CCC3)ccn2)cn1 [I-019]
27.7 nM | CN1CCC(c2ccc3c(c2)[nH]/c(=N\C(=O)c2ccnc(-c4cnn(C)c4)c2)n3CC(C)(C)O)CC1 [I-021]
169 nM | CN1CCN(c2ccc3c(c2)[nH]/c(=N\C(=O)c2ccnc(-c4cnn(C)c4)c2)n3CC(C)(C)O)CC1 [I-022]

Molecular target: EGFR wt (Homo sapiens (Human), UniProt P00533)
Assay: Biochemical EGFR inhibition assay (TR-FRET, poly-GT substrate), EGFR wt
Settings: read-out: wt (5 μM ATP) IC50; 5 μM ATP
Protocol: as §1, §2, §3, §4, §5

Chain of EGFR wt (P00533 25-1210): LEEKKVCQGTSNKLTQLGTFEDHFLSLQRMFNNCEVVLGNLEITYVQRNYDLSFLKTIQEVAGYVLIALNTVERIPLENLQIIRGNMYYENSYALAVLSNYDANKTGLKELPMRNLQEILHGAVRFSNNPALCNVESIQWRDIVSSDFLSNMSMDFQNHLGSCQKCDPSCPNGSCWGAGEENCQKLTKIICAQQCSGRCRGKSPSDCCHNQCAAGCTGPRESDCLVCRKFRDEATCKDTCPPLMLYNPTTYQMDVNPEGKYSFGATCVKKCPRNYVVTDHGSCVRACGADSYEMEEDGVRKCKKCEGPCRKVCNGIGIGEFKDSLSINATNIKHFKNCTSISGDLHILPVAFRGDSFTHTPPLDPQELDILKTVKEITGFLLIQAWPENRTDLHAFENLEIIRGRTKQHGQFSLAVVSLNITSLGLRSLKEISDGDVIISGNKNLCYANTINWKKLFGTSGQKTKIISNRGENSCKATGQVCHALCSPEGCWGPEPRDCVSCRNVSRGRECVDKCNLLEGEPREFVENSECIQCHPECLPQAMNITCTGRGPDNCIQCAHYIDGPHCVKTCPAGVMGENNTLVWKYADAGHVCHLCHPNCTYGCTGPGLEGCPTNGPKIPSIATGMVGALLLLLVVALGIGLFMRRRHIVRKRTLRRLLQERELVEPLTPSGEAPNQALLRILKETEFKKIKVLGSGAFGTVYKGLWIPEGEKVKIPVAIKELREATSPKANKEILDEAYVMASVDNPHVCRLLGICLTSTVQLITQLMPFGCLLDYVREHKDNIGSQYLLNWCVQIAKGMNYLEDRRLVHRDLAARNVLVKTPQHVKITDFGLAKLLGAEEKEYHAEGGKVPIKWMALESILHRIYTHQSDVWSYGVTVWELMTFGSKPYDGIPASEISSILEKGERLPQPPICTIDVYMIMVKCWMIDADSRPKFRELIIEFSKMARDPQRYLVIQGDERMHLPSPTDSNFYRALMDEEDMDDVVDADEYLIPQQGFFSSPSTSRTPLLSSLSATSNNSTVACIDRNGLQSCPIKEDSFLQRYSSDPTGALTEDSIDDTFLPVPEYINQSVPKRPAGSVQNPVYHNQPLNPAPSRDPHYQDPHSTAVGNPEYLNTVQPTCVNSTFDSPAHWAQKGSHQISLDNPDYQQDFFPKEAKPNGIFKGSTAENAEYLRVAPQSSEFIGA

Compound | IC50
CC(=O)N1CCC(c2ccc3c(c2)[nH]/c(=N\C(=O)c2ccnc(-c4cnn(C)c4)c2)n3C2CCCC2)CC1 [I-008] | 185 nM
CC(C)Cn1/c(=N/C(=O)c2ccnc(-c3cnn(C)c3)c2)[nH]c2ccccc21 [I-012] | 403 nM
Cc1c(-c2cc(C(=O)/N=c3\[nH]c4ccccc4n3CC(C)(C)O)ccn2)cnn1C [I-017] | 1880 nM

Same assay, conditions: read-out: wt (100 μM ATP) IC50; 100 μM ATP

Compound | IC50
O=C(/N=c1\[nH]c2ccccc2n1C1CCCC1)c1ccnc(-c2cccnc2)c1 [I-002] | 2510 nM
Cn1cc(-c2cc(C(=O)/N=c3\[nH]c4ccccc4n3C3CCCC3)ccn2)cn1 [I-003] | 4080 nM
Cc1c(-c2cc(C(=O)/N=c3\[nH]c4ccccc4n3C3CCCC3)ccn2)cnn1C [I-004] | 1950 nM
Cc1nn(C)cc1-c1cc(C(=O)/N=c2\[nH]c3ccccc3n2C2CCCC2)ccn1 [I-005] | 236 nM
CC(=O)N1CCC(c2ccc3c(c2)[nH]/c(=N\C(=O)c2ccnc(-c4cnn(C)c4)c2)n3C2CCCC2)CC1 [I-008] | > 4000 nM
Cn1cc(-c2cc(C(=O)/N=c3\[nH]c4ccccc4n3[C@H]3CC[C@@H](O)C3)ccn2)cn1 [I-009] | 12400 nM
CN1CCC(c2ccc3c(c2)[nH]/c(=N\C(=O)c2ccnc(-c4cnn(C)c4)c2)n3C2CCCC2)CC1 [I-010] | 5110 nM
CN1CCC(c2ccc3c(c2)[nH]/c(=N\C(=O)c2ccnc(-c4cccnc4)c2)n3C2CCCC2)CC1 [I-011] | 7060 nM
CC(C)Cn1/c(=N/C(=O)c2ccnc(-c3cnn(C)c3)c2)[nH]c2ccccc21 [I-012] | > 100000 nM

Other lines, results leading:

IC50 | Compound
3770 nM | Cn1cc(-c2cc(C(=O)/N=c3\[nH]c4ccccc4n3[C@H]3CC[C@H](O)C3)ccn2)cn1 [I-013]
> 100000 nM | CCCn1/c(=N/C(=O)c2ccnc(-c3cnn(C)c3)c2)[nH]c2ccccc21 [I-014]
9960 nM | Cc1c(-c2cc(C(=O)/N=c3\[nH]c4ccccc4n3CC(C)(C)O)ccn2)cnn1C [I-017]
4370 nM | Cn1cc(-c2cc(C(=O)/N=c3\[nH]c4ccccc4n3C3CCC3)ccn2)cn1 [I-019]
876 nM | CN1CCC(c2ccc3c(c2)[nH]/c(=N\C(=O)c2ccnc(-c4cnn(C)c4)c2)n3CC(C)(C)O)CC1 [I-021]
5620 nM | CN1CCN(c2ccc3c(c2)[nH]/c(=N\C(=O)c2ccnc(-c4cnn(C)c4)c2)n3CC(C)(C)O)CC1 [I-022]

Molecular target: EGFR del19 T790M C797S protein in Ba/F3 cells (Homo sapiens, UniProt P00533, C797S/DEL746-750/T790M)
Assay: pEGFR assay (AlphaScreen Surefire, EGFR Tyr1068 phosphorylation)
Format: cell-based
Settings: not given
Outline: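 Transduced Ba/F3 cells, puromycin-selected and grown IL-3 independent, were treated with compound at 60.000 cells/well for 4 h at 37° C. Lysis followed for 20 min at room temperature, and Tyr1068 phospho-EGFR in lysate was detected after 2 h dark incubation. Results are IC50 values.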

Chain of EGFR del19 T790M C797S protein in Ba/F3 cells (P00533 with tags, fused parts or gaps C797S/DEL746-750/T790M limits assumed): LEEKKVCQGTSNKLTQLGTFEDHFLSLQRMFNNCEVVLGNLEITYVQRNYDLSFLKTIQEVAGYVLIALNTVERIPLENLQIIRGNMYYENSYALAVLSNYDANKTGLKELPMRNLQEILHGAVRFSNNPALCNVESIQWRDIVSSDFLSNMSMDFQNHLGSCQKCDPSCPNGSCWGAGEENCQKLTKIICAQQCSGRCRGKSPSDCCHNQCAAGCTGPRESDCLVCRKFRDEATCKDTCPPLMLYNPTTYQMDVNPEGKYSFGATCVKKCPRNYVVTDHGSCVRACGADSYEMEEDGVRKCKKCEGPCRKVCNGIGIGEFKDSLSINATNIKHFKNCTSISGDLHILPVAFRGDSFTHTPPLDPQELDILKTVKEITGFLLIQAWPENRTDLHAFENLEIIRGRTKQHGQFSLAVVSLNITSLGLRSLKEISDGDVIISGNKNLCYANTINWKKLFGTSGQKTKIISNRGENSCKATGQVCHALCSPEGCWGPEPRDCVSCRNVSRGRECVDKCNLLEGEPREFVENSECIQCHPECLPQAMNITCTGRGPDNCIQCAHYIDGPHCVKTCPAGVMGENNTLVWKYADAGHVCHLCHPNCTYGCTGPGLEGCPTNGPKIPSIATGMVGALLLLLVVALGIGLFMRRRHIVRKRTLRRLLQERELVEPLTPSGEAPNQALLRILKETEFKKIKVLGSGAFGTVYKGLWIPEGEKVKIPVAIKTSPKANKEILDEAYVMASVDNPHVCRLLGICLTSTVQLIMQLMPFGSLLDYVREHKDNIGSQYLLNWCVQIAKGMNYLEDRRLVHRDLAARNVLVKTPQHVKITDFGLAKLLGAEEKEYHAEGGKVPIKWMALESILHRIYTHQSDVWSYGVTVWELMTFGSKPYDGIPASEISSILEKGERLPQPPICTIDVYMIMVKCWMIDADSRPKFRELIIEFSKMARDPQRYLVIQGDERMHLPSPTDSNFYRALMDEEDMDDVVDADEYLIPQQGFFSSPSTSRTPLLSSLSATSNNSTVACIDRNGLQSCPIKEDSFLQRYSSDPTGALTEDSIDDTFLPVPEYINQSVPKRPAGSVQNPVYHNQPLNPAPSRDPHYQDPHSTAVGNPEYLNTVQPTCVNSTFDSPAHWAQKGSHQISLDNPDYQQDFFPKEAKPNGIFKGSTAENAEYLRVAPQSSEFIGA

Compound | IC50
Cn1cc(-c2cc(C(=O)/N=c3\[nH]c4ccccc4n3CC(C)(C)O)ccn2)cn1 [I-001] | 43 nM
O=C(/N=c1\[nH]c2ccccc2n1C1CCCC1)c1ccnc(-c2cccnc2)c1 [I-002] | 9 nM
Cn1cc(-c2cc(C(=O)/N=c3\[nH]c4ccccc4n3C3CCCC3)ccn2)cn1 [I-003] | 29 nM
Cc1c(-c2cc(C(=O)/N=c3\[nH]c4ccccc4n3C3CCCC3)ccn2)cnn1C [I-004] | 13 nM
Cc1nn(C)cc1-c1cc(C(=O)/N=c2\[nH]c3ccccc3n2C2CCCC2)ccn1 [I-005] | 11 nM
CC(=O)N1CCC(c2ccc3c(c2)[nH]/c(=N\C(=O)c2ccnc(-c4cnn(C)c4)c2)n3C2CCCC2)CC1 [I-008] | 6 nM
Cn1cc(-c2cc(C(=O)/N=c3\[nH]c4ccccc4n3[C@H]3CC[C@@H](O)C3)ccn2)cn1 [I-009] | 30 nM
CN1CCC(c2ccc3c(c2)[nH]/c(=N\C(=O)c2ccnc(-c4cnn(C)c4)c2)n3C2CCCC2)CC1 [I-010] | 20 nM
CN1CCC(c2ccc3c(c2)[nH]/c(=N\C(=O)c2ccnc(-c4cccnc4)c2)n3C2CCCC2)CC1 [I-011] | 77 nM
CC(C)Cn1/c(=N/C(=O)c2ccnc(-c3cnn(C)c3)c2)[nH]c2ccccc21 [I-012] | 25 nM

The next lines start with the values.

IC50 | Compound
13 nM | Cn1cc(-c2cc(C(=O)/N=c3\[nH]c4ccccc4n3[C@H]3CC[C@H](O)C3)ccn2)cn1 [I-013]
94 nM | CCCn1/c(=N/C(=O)c2ccnc(-c3cnn(C)c3)c2)[nH]c2ccccc21 [I-014]
7 nM | Cc1c(-c2cc(C(=O)/N=c3\[nH]c4ccccc4n3CC(C)(C)O)ccn2)cnn1C [I-017]
37 nM | Cn1cc(-c2cc(C(=O)/N=c3\[nH]c4ccccc4n3C3CCC3)ccn2)cn1 [I-019]
4 nM | CN1CCC(c2ccc3c(c2)[nH]/c(=N\C(=O)c2ccnc(-c4cnn(C)c4)c2)n3CC(C)(C)O)CC1 [I-021]
71 nM | CN1CCN(c2ccc3c(c2)[nH]/c(=N\C(=O)c2ccnc(-c4cnn(C)c4)c2)n3CC(C)(C)O)CC1 [I-022]
1 nM | COc1ccncc1-c1cc(C(=O)/N=c2\[nH]c3cc(C4CCN(C(C)=O)CC4)ccc3n2CC(C)(C)O)ccn1 [I-031]
